For four molecules, IC50 and viability, T/C results are on record in PubChem BioAssay AID2060491 (Molecular Pharmacology Branch, DTP, NCI, 2025).

Where “and” joins values, the source holds several entries; their conditions need not be identical. Identical values can stand only once.

This test concerns 857933-349-R-J2-PDC complex spheroids, viability. The experiment in a line: Anticancer human tumor 857933-349-R-J2-PDC patient-derived colon adenocarcinoma cell line growth inhibition [GQUAD]. The following applies: for viability, T/C: stronger effect = lower value. The source says: DNA G-quadruplex Stabilizer Agents in Combinations in Complex Spheroids
A high-throughput screen of multi-cell type tumor spheroids was designed to identify active combinations of DNA G-quadruplex stabilizer agents and targeted small molecules. Complex spheroids include a stromal component modeled by human endothelial cells (HUVEC) and fibroblasts modeled by human mesenchymal stem cells (MSCs). The concentration ranges selected for each drug and investigational agent were based upon clinically achievable concentrations if the clinical Cmax of the agent was known.
Compounds. The drugs and investigational agents: pidnarulex (CX-5461; NSC782164), APTO-253 (NSC789042), BRACO-19 (NSC847499), peposertib (NSC802822), ceralasertib (NSC780249), elimusertib (NSC800525), camonsertib (NSC841442), AZD-1390 (NSC803789), olaparib (NSC753686), talazoparib (NSC767125), ART-558 (NSC835418), sotorasib (NSC818433), MRTX-1133 (NSC836407), SN-38 (NSC673596), topotecan (NSC609699), etoposide (NSC141540), doxorubicin (NSC123127), gemcitabine (NSC613327), 5-fluorouracil (NSC19893), paclitaxel (NSC125973), vemurafenib (NSC761431), panobinostat (NSC761190), R-306465 (JNJ-16241199; NSC773264), adavosertib (NSC754352), TP-3654 (NSC805149), carboplatin (NSC241240), KSQ-4279 (NSC840948), and staurosporine (NSC755774) were obtained from the National Cancer Institute (NCI) Developmental Therapeutics Program Chemical Repository (34). The FDA-approved anticancer drug set is available from the NCI Developmental Therapeutics Program. […] The stock solutions were prepared in dimethyl sulfoxide (DMSO, Sigma-Aldrich, St. Louis, MO, cat. D2650) at 800-fold the tested concentration and stored at -70 degrees C prior to their use. All drugs and investigational agents were tested over a range starting from a high concentration at or near the clinical Cmax and decreasing in half-log increments. If the clinical Cmax for an agent had not been determined, the highest concentration tested was 10 microM.
2.3 Cell Culture. All cells were maintained in an incubator at 37 degrees C and 5% CO2 with 95% humidity. The PDC lines were cultured according to standard operating procedures established by the NCI PDMR. All PDCs were thawed and cultured in Matrigel-coated flasks prepared with a working solution of 1X Ham's F-12 nutrient mix, without supplementation (Invitrogen, cat. 11765054), 100 U/mL penicillin-streptomycin (Invitrogen, cat. 15140122), and 2.5% Matrigel (Corning Inc., cat. 354248) for the first three passages. The 857933-349-R-J2-PDC line was cultured in 6C/Colon 1B media, which includes advanced DMEM/F-12 (Thermo Fisher Scientific, cat. 12634028), 10 mM HEPES (Thermo Fisher Scientific, cat. 15630080), 1X GlutaMAX supplement (Thermo Fisher Scientific, cat. 35050061), 0.1 mg/mL primocin (InvivoGen, cat. ant-pm-2), 10% defined fetal bovine serum, heat inactivated (HyClone Laboratories Inc., cat. SH30070.03HI), 50% L-WRN conditioned media (ATCC, cat. CRL-3276), 1.25 mM N-Acetyl-L-cysteine (Sigma-Aldrich, cat. A9165), 10 mM nicotinamide (Sigma-Aldrich, cat. N0636), 1X B-27 supplement (Thermo Fisher Scientific, cat. 17504044), 1X N-2 supplement (Thermo Fisher Scientific, cat. 17502048), 10 microM Y-27632 dihydrochloride (Tocris Bioscience, cat. 1254), and 50 ng/mL human EGF recombinant protein (Thermo Fisher Scientific, cat. PHG0311). The 485176-168-R4-J1-PDC line was cultured in Panc media, which includes all 6C/Colon 1B media components plus 100 ng/mL human FGF-10 (Thermo Fisher Scientific, cat. 100-26), 500 nM SB-431542 (Selleckchem, cat. S1067), and gastrin (Tocris, cat. 3006).
[…]
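Note: spheroids exposed to compounds for one week before readout.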
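Throughout, for viability, T/C: percent viability relative to vehicle DMSO wells taken as 100%.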

On to `CCCS(=O)(=O)Nc1ccc(F)c(C(=O)c2c[nH]c3ncc(-c4ccc(Cl)cc4)cc23)c1F` + Cc1[nH]c2ccc(F)cc2c1-c1nc2c3cccnc3c3ncccc3c2[nH]1, for which the IC50 (curve of first compound, second compound 0.0316 µM) worked out at 5.43 µM; the IC50 (curve of first compound, second compound 0.1 µM) is 5.23 µM; the IC50 (curve of first compound, second compound 0.316 µM) came to 5.23 µM; the IC50 (curve of first compound, second compound 1 µM) was determined as 5.11 µM; the IC50 (curve of first compound, second compound 3.16 µM) turned out to be 5.01 µM; the IC50 (curve of first compound, second compound 10 µM) stood at 4.74 µM. The viability, T/C was 101% (second compound 0.0316 µM, first compound 0.0316 µM); 98.1% (second compound 0.0316 µM, first compound 0.1 µM); 94.7% (second compound 0.0316 µM, first compound 0.316 µM); 115% (second compound 0.0316 µM, first compound 1 µM); 89.8% (second compound 0.0316 µM, first compound 3.16 µM); 4.88% (second compound 0.0316 µM, first compound 10 µM). In addition, the viability, T/C by setting is: (second compound 0.1 µM, first compound 0.0316 µM) 97.8%; (second compound 0.1 µM, first compound 0.1 µM) 97.7%; (second compound 0.1 µM, first compound 0.316 µM) 102%; (second compound 0.1 µM, first compound 1 µM) 105%; (second compound 0.1 µM, first compound 3.16 µM) 85%; (second compound 0.1 µM, first compound 10 µM) 4.75%. Moreover, the viability, T/C was 97.8% (second compound 0.316 µM, first compound 0.0316 µM); 97.5% (second compound 0.316 µM, first compound 0.1 µM); 96% (second compound 0.316 µM, first compound 0.316 µM); 94.3% (second compound 0.316 µM, first compound 1 µM); 84.4% (second compound 0.316 µM, first compound 3.16 µM); 5.8% (second compound 0.316 µM, first compound 10 µM). In addition, the viability, T/C is 97.1% (second compound 1 µM, first compound 0.0316 µM); 85.1% (second compound 1 µM, first compound 0.1 µM); 90.2% (second compound 1 µM, first compound 0.316 µM); 82.8% (second compound 1 µM, first compound 1 µM); 81.1% (second compound 1 µM, first compound 3.16 µM); 6.53% (second compound 1 µM, first compound 10 µM). In addition, the viability, T/C reads like this: (second compound 3.16 µM, first compound 0.0316 µM) 84.4%; (second compound 3.16 µM, first compound 0.1 µM) 74.2%; (second compound 3.16 µM, first compound 0.316 µM) 79.1%; (second compound 3.16 µM, first compound 1 µM) 74.2%; (second compound 3.16 µM, first compound 3.16 µM) 82.9%; (second compound 3.16 µM, first compound 10 µM) 6.5%. Also, the viability, T/C by setting is: (second compound 10 µM, first compound 0.0316 µM) 82.7%; (second compound 10 µM, first compound 0.1 µM) 85.2%; (second compound 10 µM, first compound 0.316 µM) 80.5%; (second compound 10 µM, first compound 1 µM) 84.5%; (second compound 10 µM, first compound 3.16 µM) 73.7%; (second compound 10 µM, first compound 10 µM) 6.22%.
As for `Nc1ccn(C2OC(CO)C(O)C2(F)F)c(=O)n1` (configuration not stated), the viability, T/C by setting is: (compound 0.0316 µM) 75.3% and 98.5% and 97.2%; (compound 0.1 µM) 43.2% and 80.9% and 48.4%; (compound 0.316 µM) 45.5% and 58.7% and 54.6%; (compound 1 µM) 12.3% and 22.7% and 10.3%; (compound 3.16 µM) 8.31% and 14.9% and 6.52%; (compound 10 µM) 6.59% and 14.8% and 5.26%. Moreover, the IC50 (curve of compound) is 0.105 µM and 0.386 µM and 0.161 µM.
Turning to `CC1COCCN1c1cc(C2(O)CC3CCC(C2)O3)c2cnn(-c3ccn[nH]3)c2n1` (configuration not stated), the viability, T/C was 68.6% and 76.9% and 98% (compound 0.0316 µM); 52% and 53% and 88.7% (compound 0.1 µM); 43.7% and 48.3% and 77.2% (compound 0.316 µM); 38.1% and 42% and 63.5% (compound 1 µM); 46.3% and 45.1% and 55.5% (compound 3.16 µM); 37.5% and 47.3% and 50.1% (compound 10 µM).
For the molecule `CC(C)n1c(=O)n(C)c2cnc3cc(F)c(-c4ccc(OCCCN5CCCCC5)nc4)cc3c21`, the viability, T/C is 105% and 109% (2×) (compound 0.0316 µM); 101% and 106% and 90.6% (compound 0.1 µM); 104% and 109% and 108% (compound 0.316 µM); 98.6% and 103% and 99.5% (compound 1 µM); 104% and 110% and 107% (compound 3.16 µM); 78.2% and 107% and 72.4% (compound 10 µM). In addition, the IC50 (curve of compound) is over 10 µM.
